Our source for the IC50 values is patent US20250145606A1 (Arcus Biosciences, Inc., priority 2023, published 2025).

Molecules are shown by their SMILES. Where two headings read alike, the source gives them in different places. A value given as a limit tells only on which side of the number the result lay.

The target of assay [1] is FLT3 (Homo sapiens (Human), UniProt P36888). As to the kind of experiment: Inhibition of FLT3 kinase activity (HTRF KinEASE-TK). The following applies: biochemical. Type of assay: biochemical. How it is done:
Inhibition of c-Kit, PDGFRα, PDGFRβ, CSFIR and FLT3 Kinase Activity
Compounds were evaluated to determine the potency with which they inhibit the kinase activity of the following panel of tyrosine kinases: c-Kit (SignalChem, Product #: K06-11BG), PDGFRα (SignalChem, Product #: P12-18G), PDGFRβ (SignalChem, Product #: P13-11G), CSFIR (SignalChem, Product #: C74-11G) and FLT3 (Invitrogen, Product #: PR4666C). Activity was determined as a function of phosphorylated biotinylated TK peptide generated by the transfer of phosphate from ATP as measured by the use of the HTRF KinEASE-TK assay kit (Cisbio, Product #: 62TKOPEJ). Levels of phosphorylated biotinylated TK peptide (Part 61TKOBLC of KinEASE assay kit) are quantified by its capture by phosphor-TK-Antibody-Cryptate (Part of KinEASE assay kit) and XL665-labeled Streptavidin (Part 610SAXLG of KinEASE assay kit) followed by measurement of Time-Resolved Fluorescence Resonance Energy Transfer (TR-FRET) signal. On the day of the assay, compounds were solubilized in DMSO and dispensed into a 384-well white Opti-plate (PerkinElmer, catalog #6007290) to generate a 22 point 1:2 titration. Enzyme solution was prepared for each of the tyrosine kinases in 50 mM HEPES, pH 7.4, 5 mM MgCl2 for c-Kit or 10 mM MgCl2 for FLT3, CSFIR, PDGFRa and PDGFRβ, 2 mM MnCl2, 0.01% Brij-35 and 0.01% BSA. Working enzyme concentrations were prepared for c-Kit at 2 nM (2×), PDGFRa and PDGFRß at 10 nM (2×), CSFIR at 2 nM (2×) and FLT3 at 0.4 nM (2×). Five microliters of enzyme dilution of each tyrosine kinase were added to their respective 384-well white Opti-plate pre-dispensed with compound and allowed to incubate for 1 h at rt. Utilizing the same enzyme buffer recipe, 2x substrate mixes were prepared for each enzyme as follows: For c-Kit, 1.6 μM (2×) TK substrate and 16 μM (2×) ATP (Promega, catalog #V915). For PDGFRα, 3.2 μM TK substrate and 1 μM ATP. For PDGFRβ, 3.2 μM TK substrate and 40 μM ATP. For CSFIR, […] TK substrate and 20 μM ATP. For FLT3, 3.2 μM TK substrate and 100 μM ATP. Reactions were initiated by addition of 5 μL of the respective 2x substrate mix to each well of the plates containing the respective tyrosine kinase enzymes and were allowed to proceed for 120 minutes at rt, except for FLT3, the reaction time is 45 min. Following the reaction, 10 μL of detection mix consisting of 0.2 μM (2×) of Streptavidin-XL665 and 2 μM (2×) of TK-Antibody-Cryptate prepared in detection buffer (Part 62SDBRDF of KinEASE assay kit) was added and then allowed to incubate for 60 min. The TR-FRET signal was quantified by measuring the ratio of emission at 665 nm to 620 nm after excitation at 320 nm by reading on a PerkinElmer Envision multimode reader. Compound potencies (IC50 values) were determined using a standard 4-parameter non-linear regression fit.

The test system of assay [2] is Phospho-KIT (Y703) in M07e cells. As to the kind of experiment: Phospho-KIT (Y703) cellular assay in M07e cells. In kind it is cell-based. The following applies: M-07e, read-out: M07e Cell IC50. The procedure, abridged:
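Serum-starved M07e cells preincubated 50 min at 37° C with 11-point half-log compound titration, then stimulated 10 min with SCF at 90.9 ng/mL final. Fixed, permeabilized cells stained for phospho-KIT Y703 and read by flow cytometry (live-gated geometric mean); IC50 by 4-parameter fit normalized to DMSO and positive control.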

In assay [3] the target is PDGFRβ (Homo sapiens (Human), UniProt P09619). Nature of the assay: Inhibition of PDGFRβ kinase activity (HTRF KinEASE-TK). The following applies: biochemical. The procedure, abridged: (§1)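 Human kinases were preincubated 1 h at rt with a 22-point 1:2 compound titration, then run 120 min at rt with biotinylated TK peptide and ATP (2× mix: c-Kit 16 μM, PDGFRα 1 μM, PDGFRβ 40 μM, CSF1R 20 μM). Phosphopeptide was read by HTRF TR-FRET (665/620 nm), and IC50s came from 4-parameter fits.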
Chain of PDGFRβ (P09619 33-1106): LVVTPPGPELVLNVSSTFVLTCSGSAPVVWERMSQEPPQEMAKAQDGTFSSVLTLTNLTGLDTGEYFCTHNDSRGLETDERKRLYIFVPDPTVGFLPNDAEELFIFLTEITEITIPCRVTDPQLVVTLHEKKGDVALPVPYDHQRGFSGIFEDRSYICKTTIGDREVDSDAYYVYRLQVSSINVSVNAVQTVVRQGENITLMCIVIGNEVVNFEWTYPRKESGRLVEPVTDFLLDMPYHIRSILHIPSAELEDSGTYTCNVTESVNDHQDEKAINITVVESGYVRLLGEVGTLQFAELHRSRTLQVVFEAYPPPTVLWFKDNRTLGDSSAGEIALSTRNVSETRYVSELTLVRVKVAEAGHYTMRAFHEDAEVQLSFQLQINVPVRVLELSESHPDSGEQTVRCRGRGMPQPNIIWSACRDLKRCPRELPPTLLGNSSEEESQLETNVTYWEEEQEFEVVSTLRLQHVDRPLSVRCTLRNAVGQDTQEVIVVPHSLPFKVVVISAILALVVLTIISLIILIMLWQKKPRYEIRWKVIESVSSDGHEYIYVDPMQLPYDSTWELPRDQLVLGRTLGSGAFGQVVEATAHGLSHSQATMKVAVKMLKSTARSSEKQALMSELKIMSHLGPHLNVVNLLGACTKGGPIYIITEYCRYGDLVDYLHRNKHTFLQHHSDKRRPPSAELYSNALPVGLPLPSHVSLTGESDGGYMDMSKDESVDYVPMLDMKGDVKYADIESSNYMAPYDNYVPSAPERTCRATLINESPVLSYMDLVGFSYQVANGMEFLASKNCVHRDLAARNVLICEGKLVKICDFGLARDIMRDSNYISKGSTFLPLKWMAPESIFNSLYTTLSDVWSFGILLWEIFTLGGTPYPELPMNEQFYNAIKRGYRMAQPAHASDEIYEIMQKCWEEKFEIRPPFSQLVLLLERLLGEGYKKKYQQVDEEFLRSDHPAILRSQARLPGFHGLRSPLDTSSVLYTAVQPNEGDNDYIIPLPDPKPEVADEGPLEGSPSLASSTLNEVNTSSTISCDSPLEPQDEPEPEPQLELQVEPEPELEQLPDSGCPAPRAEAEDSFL

Assay [4] has as its target CSF1R (Homo sapiens (Human), UniProt P07333). As to the kind of experiment: Inhibition of CSF1R kinase activity (HTRF KinEASE-TK). Particulars: biochemical. The procedure, abridged: as §1
For assay [5], the target named is PDGFRα (Homo sapiens (Human), UniProt P16234). As to the kind of experiment: Inhibition of PDGFRα kinase activity (HTRF KinEASE-TK). Particulars: biochemical. The procedure, abridged:
as §1

Assay [6] deals with c-Kit (Homo sapiens (Human), UniProt P10721). Nature of the assay: Inhibition of c-Kit kinase activity (HTRF KinEASE-TK). The following applies: biochemical. Type of assay: biochemical. The procedure, abridged: as §1
Chain of c-Kit (P10721 26-976): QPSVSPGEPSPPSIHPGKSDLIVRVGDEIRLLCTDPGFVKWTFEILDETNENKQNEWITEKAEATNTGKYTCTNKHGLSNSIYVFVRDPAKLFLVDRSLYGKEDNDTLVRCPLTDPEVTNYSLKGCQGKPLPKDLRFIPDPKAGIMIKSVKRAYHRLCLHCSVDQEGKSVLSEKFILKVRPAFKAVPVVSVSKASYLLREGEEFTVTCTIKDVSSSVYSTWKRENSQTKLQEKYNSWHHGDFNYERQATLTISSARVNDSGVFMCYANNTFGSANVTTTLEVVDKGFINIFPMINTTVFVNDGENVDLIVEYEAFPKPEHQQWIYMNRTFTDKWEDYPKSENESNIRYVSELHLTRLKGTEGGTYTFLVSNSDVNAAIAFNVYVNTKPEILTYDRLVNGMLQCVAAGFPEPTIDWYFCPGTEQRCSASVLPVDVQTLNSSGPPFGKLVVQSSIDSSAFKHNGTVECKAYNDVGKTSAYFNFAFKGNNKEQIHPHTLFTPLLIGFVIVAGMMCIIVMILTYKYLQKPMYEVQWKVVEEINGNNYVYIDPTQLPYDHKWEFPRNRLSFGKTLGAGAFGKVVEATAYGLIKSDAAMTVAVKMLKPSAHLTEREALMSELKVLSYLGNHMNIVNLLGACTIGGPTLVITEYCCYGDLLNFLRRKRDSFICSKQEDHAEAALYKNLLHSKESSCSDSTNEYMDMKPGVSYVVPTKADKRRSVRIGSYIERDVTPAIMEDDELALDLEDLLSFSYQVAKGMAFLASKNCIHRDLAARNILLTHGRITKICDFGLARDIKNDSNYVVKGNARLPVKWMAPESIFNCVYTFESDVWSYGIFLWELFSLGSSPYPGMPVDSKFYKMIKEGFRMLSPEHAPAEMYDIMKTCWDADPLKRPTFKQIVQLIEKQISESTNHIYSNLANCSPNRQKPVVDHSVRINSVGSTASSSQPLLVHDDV
Setting [7] is: phospho-KIT (Y703), SCF-stimulated M07e cells.

Chain of FLT3 (P36888 27-993): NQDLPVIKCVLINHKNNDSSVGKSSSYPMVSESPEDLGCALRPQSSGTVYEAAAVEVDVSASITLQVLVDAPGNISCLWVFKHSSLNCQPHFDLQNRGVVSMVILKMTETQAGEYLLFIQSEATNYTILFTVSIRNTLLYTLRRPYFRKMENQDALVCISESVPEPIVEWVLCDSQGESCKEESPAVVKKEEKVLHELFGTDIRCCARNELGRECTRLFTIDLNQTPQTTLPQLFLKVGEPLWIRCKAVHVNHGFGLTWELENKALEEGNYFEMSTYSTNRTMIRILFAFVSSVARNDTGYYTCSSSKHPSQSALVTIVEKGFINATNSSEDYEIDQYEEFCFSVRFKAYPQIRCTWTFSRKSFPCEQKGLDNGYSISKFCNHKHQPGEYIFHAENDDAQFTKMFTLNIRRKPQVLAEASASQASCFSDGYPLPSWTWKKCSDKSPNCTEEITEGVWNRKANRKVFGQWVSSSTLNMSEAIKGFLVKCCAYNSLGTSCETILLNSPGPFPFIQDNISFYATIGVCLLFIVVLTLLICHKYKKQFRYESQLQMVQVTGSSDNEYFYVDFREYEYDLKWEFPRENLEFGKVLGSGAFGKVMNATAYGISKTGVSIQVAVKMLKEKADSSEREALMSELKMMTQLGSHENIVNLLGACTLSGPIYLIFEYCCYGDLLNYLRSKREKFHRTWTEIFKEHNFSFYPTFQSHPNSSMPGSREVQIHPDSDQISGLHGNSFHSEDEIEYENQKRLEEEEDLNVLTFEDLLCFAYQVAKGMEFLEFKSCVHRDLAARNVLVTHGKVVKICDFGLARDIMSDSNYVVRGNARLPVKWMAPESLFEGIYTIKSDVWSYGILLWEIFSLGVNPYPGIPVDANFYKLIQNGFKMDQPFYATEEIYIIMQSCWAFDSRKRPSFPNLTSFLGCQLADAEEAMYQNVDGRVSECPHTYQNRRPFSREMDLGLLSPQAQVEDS
Chain of CSF1R (P07333 20-972): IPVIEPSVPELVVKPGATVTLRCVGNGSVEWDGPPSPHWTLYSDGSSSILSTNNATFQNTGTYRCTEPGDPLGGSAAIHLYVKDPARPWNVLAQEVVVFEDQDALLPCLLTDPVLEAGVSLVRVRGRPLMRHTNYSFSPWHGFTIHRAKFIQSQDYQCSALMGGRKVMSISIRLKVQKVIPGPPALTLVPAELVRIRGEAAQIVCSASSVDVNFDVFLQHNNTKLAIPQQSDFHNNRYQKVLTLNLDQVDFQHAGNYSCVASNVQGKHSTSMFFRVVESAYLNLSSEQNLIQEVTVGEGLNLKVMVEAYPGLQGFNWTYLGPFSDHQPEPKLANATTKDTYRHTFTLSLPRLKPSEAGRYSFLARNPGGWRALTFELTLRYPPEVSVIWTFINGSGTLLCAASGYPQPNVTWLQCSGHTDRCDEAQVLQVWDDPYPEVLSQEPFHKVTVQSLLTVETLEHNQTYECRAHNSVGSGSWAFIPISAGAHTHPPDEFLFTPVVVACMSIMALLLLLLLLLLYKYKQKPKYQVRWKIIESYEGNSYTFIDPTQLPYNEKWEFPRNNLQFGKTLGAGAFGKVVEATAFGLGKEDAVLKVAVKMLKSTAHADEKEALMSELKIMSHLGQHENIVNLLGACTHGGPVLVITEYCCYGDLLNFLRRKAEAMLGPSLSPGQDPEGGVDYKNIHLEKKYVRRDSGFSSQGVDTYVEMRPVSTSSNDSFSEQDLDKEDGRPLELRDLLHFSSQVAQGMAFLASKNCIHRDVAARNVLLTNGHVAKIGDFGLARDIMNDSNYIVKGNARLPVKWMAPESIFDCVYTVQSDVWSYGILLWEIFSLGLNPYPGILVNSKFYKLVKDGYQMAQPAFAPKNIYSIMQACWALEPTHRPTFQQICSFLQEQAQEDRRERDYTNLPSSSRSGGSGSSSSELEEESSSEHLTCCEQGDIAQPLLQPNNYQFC
Chain of PDGFRα (P16234 24-1089): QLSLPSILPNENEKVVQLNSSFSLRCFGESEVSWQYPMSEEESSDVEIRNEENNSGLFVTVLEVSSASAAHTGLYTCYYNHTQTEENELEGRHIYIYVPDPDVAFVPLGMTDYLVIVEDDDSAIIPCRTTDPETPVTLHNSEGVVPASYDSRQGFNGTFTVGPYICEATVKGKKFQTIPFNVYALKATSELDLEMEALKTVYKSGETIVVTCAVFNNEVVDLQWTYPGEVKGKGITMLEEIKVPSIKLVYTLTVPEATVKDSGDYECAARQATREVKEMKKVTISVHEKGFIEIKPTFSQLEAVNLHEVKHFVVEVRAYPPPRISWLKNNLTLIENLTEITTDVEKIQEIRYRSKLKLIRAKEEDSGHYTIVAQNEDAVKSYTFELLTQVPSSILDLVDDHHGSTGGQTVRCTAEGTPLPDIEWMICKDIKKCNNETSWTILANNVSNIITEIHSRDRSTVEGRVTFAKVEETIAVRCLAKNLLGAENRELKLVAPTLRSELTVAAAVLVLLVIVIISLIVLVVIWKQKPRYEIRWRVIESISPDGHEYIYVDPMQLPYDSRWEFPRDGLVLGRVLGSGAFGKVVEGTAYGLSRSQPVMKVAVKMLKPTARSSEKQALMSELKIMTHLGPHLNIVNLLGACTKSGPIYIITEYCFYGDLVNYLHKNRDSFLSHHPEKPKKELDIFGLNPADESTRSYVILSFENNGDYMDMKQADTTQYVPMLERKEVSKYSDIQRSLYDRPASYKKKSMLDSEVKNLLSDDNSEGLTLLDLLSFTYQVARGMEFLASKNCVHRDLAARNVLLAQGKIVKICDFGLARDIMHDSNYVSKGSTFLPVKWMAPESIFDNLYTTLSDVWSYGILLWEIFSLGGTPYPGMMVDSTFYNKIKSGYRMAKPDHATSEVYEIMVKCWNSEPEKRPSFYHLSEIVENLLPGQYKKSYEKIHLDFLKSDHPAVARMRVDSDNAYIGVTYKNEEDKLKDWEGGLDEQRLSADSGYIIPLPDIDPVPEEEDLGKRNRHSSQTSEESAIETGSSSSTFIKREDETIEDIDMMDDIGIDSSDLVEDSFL

As for `Cc1cc(F)c(C(=O)Nc2ccc(CC3CC3)cn2)cc1NC(=O)c1cnc(N)s1` [Example 7, 2-Amino-N-[5-[[5-(cyclopropylmethyl)pyridin-2-yl]carbamoyl]-4-fluoro-2-methylphenyl]-1,3-thiazole-5-carboxamide], the IC50 is over 1000 nM in assay [1]; under 100 nM in assay [2] (setting [7]); under 100 nM in assay [3]; 100 to 1000 nM in assay [4]; 100 to 1000 nM in assay [5]; under 100 nM in assay [6].
As for `Cc1cc(F)c(C(=O)Nc2ccc(OC(F)(F)F)cn2)cc1NC(=O)c1cnc(N)s1` [Example 8, 2-Amino-N-[4-fluoro-2-methyl-5-[[5-(trifluoromethoxy)pyridin-2-yl]carbamoyl]phenyl]-1,3-thiazole-5-carboxamide], the concentration for half-maximal inhibition (IC50) is over 1000 nM in assay [1]; under 100 nM in assay [2] (setting [7]); 100 to 1000 nM in assay [3]; 100 to 1000 nM in assay [4]; 100 to 1000 nM in assay [5]; under 100 nM in assay [6].
Regarding `Cc1cc(F)c(C(=O)Nc2ccc(OC(F)F)cn2)cc1NC(=O)c1cnc(N)s1` [Example 9, 2-Amino-N-[5-[[5-(difluoromethoxy)pyridin-2-yl]carbamoyl]-4-fluoro-2-methylphenyl]-1,3-thiazole-5-carboxamide], the half-maximal inhibitory concentration (IC50) is over 1000 nM in assay [1]; under 100 nM in assay [2] (setting [7]); 100 to 1000 nM in assay [3]; 100 to 1000 nM in assay [4]; over 1000 nM in assay [5]; under 100 nM in assay [6].
`COCc1ccc(NC(=O)c2cc(NC(=O)c3cnc(N)s3)c(C)cc2F)nc1` [Example 10, 2-Amino-N-[4-fluoro-5-[[5-(methoxymethyl)pyridin-2-yl]carbamoyl]-2-methylphenyl]-1,3-thiazole-5-carboxamide]: the half-maximal inhibitory concentration (IC50) in assay [1] was over 1000 nM; in assay [2] (setting [7]) it was under 100 nM; in assay [3], over 1000 nM; in assay [4], over 1000 nM; in assay [5] it was over 1000 nM; in assay [6], under 100 nM.
For `Cc1cc(F)c(C(=O)Nc2ccc(CC(F)(F)F)cn2)cc1NC(=O)c1cnc(N)s1` [Example 11, 2-Amino-N-[4-fluoro-2-methyl-5-[[5-(2,2,2-trifluoroethyl)pyridin-2-yl]carbamoyl]phenyl]-1,3-thiazole-5-carboxamide], the half-inhibitory concentration (IC50) in assay [1] is over 1000 nM; in assay [2] (setting [7]) it was under 100 nM; in assay [3] it was under 100 nM; in assay [4] it was 100 to 1000 nM; in assay [5] it was 100 to 1000 nM; in assay [6], under 100 nM.
Regarding `Cc1ncc(C(=O)Nc2cc(C(=O)Nc3cnc(OC4CC4)cn3)c(F)cc2C)s1` [Example 13, N-[5-[(5-Cyclopropyloxypyrazin-2-yl)carbamoyl]-4-fluoro-2-methylphenyl]-2-methyl-1,3-thiazole-5-carboxamide], the IC50 was over 1000 nM in assay [1] (HTRF KinEASE-TK); under 100 nM in assay [2] (Phospho-KIT (Y703), M07e cells); over 1000 nM in assay [4] (HTRF KinEASE-TK); under 100 nM in assay [6] (HTRF KinEASE-TK).
On to `CCOc1cnc(NC(=O)c2cc(NC(=O)c3cnc(C)s3)c(C)cc2F)cn1` [Example 17, N-[5-[(5-Ethoxypyrazin-2-yl)carbamoyl]-4-fluoro-2-methylphenyl]-2-methyl-1,3-thiazole-5-carboxamide], for which the IC50 in assay [1] (HTRF KinEASE-TK) is over 1000 nM; in assay [2] (Phospho-KIT (Y703), M07e cells), under 100 nM; in assay [3] (HTRF KinEASE-TK), over 1000 nM; in assay [4] (HTRF KinEASE-TK), over 1000 nM; in assay [5] (HTRF KinEASE-TK), over 1000 nM; in assay [6] (HTRF KinEASE-TK) it was under 100 nM.
Turning to `Cc1ncc(C(=O)Nc2cc(C(=O)Nc3ccc(C4CC4)nc3)c(F)cc2C)s1` [Example 24, N-[5-[(6-Cyclopropylpyridin-3-yl)carbamoyl]-4-fluoro-2-methylphenyl]-2-methyl-1,3-thiazole-5-carboxamide], the half-maximal inhibitory concentration (IC50) in assay [1] (HTRF KinEASE-TK) was over 1000 nM; in assay [2] (Phospho-KIT (Y703), M07e cells) it was under 100 nM; in assay [4] (HTRF KinEASE-TK), over 1000 nM; in assay [6] (HTRF KinEASE-TK) it was under 100 nM.
Consider `Cc1ncc(C(=O)Nc2cc(C(=O)Nc3cnc(OC(F)(F)F)cn3)c(F)cc2C)s1` [Example 87, N-[5-(N-5-trifluoromethoxy-2-pyrazinylcarbamoyl)-4-fluoro-2-tolyl]-2-methyl-1,3-thiazole-5-carboxamide], for which the IC50 in assay [1] (HTRF KinEASE-TK) is over 1000 nM; in assay [2] (Phospho-KIT (Y703), M07e cells), under 100 nM; in assay [4] (HTRF KinEASE-TK), over 1000 nM; in assay [6] (HTRF KinEASE-TK) it was under 100 nM.
With `Cc1ncc(C(=O)Nc2cc(C(=O)Nc3cnc(CC4CC4)cn3)c(F)cc2C)s1` [Example 91, N-{5-[N-5-(cyclopropylmethyl)-2-pyrazinylcarbamoyl]-4-fluoro-2-tolyl}-2-methyl-1,3-thiazole-5-carboxamide], the IC50 in assay [1] (HTRF KinEASE-TK) is over 1000 nM; in assay [2] (Phospho-KIT (Y703), M07e cells) it was under 100 nM; in assay [4] (HTRF KinEASE-TK), over 1000 nM; in assay [6] (HTRF KinEASE-TK), under 100 nM.
`Cc1cc(F)c(C(=O)NCC2(F)CCC2)cc1NC(=O)c1cnc(NC(=O)N2CCC2)s1` [Example 104, 2-(Azetidine-1-carbonylamino)-N-[4-fluoro-5-[(1-fluorocyclobutyl)methylcarbamoyl]-2-methylphenyl]-1,3-thiazole-5-carboxamide]: the IC50 in assay [1] (HTRF KinEASE-TK) was over 1000 nM; in assay [2] (Phospho-KIT (Y703), M07e cells), under 100 nM; in assay [4] (HTRF KinEASE-TK), 100 to 1000 nM; in assay [6] (HTRF KinEASE-TK), under 100 nM.
Consider `COCCn1ccc(NC(=O)c2cc(NC(=O)c3cnc(N)s3)c(C)cc2F)n1` [Example 154, 2-Amino-N-[4-fluoro-5-[[1-(2-methoxyethyl)pyrazol-3-yl]carbamoyl]-2-methylphenyl]-1,3-thiazole-5-carboxamide], for which the IC50 in assay [1] (HTRF KinEASE-TK) was over 1000 nM; in assay [2] (Phospho-KIT (Y703), M07e cells), under 100 nM; in assay [3] (HTRF KinEASE-TK), over 1000 nM; in assay [5] (HTRF KinEASE-TK), over 1000 nM; in assay [6] (HTRF KinEASE-TK), under 100 nM.
As for `Cc1cc(F)c(C(=O)Nc2ccn(-c3ccccn3)n2)cc1NC(=O)c1cnc(N)s1` [Example 168, 2-Amino-N-[4-fluoro-2-methyl-5-[(1-pyridin-2-ylpyrazol-3-yl)carbamoyl]phenyl]-1,3-thiazole-5-carboxamide], the concentration for half-maximal inhibition (IC50) in assay [1] (HTRF KinEASE-TK) is over 1000 nM; in assay [2] (Phospho-KIT (Y703), M07e cells) it was under 100 nM; in assay [3] (HTRF KinEASE-TK) it was over 1000 nM; in assay [4] (HTRF KinEASE-TK), over 1000 nM; in assay [6] (HTRF KinEASE-TK), under 100 nM.
`Cc1cc(F)c(C(=O)NCC2(F)CC2)cc1NC(=O)c1cnc(N)s1` [Example 193, 2-Amino-N-[4-fluoro-5-[(1-fluorocyclopropyl)methylcarbamoyl]-2-methylphenyl]-1,3-thiazole-5-carboxamide]: the IC50 in assay [1] (HTRF KinEASE-TK) was over 1000 nM; in assay [2] (Phospho-KIT (Y703), M07e cells) it was under 100 nM; in assay [4] (HTRF KinEASE-TK) it was over 1000 nM; in assay [6] (HTRF KinEASE-TK), under 100 nM.
On to `Nc1ncc(C(=O)Nc2cc(C(=O)Nc3ccc(OC4CC4)cn3)c(F)cc2F)s1` [Example 222, 2-Amino-N-[5-[(5-cyclopropyloxypyridin-2-yl)carbamoyl]-2,4-difluorophenyl]-1,3-thiazole-5-carboxamide], for which the IC50 in assay [1] (HTRF KinEASE-TK) was over 1000 nM; in assay [2] (Phospho-KIT (Y703), M07e cells), under 100 nM; in assay [3] (HTRF KinEASE-TK), over 1000 nM; in assay [5] (HTRF KinEASE-TK) it was over 1000 nM; in assay [6] (HTRF KinEASE-TK), under 100 nM.
